Reference: the supplement of paper PMC10307832

Assays:
Assay in all cases: relative viability (nuclei count vs DMSO), 5 days (fraction); higher = more cells survive
[1] = tested on: EPLC-272H
Outline: (§1)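 Cells from lung cancer lines were seeded into 1536-well plates and, one day later, dosed by pin tool. Treatments were either a single drug or a fixed dose of an anchor drug with five library-drug doses (not always all listed) in √10 steps. After 5 days, nuclei were stained in a one-step fixation (final 0.05% Triton X-100, 1% formaldehyde, 1 ug/ml Hoechst) and counted on 4× images, and relative viability is the treated-to-vehicle nuclei ratio, as the median of duplicate plates.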

[2] = tested on: NCI-H650
Outline: as §1

[3] = tested on: COR-L23
Outline: as §1

[4] = tested on: PC-14
Outline: as §1

[5] = tested on: CAL-12T
Outline: as §1

[6] = tested on: RERF-LC-KJ
Outline: as §1

[7] = tested on: LCLC-103H
Outline: as §1

[8] = tested on: LXF-289
Outline: as §1

[9] = tested on: NCI-H2087
Outline: as §1

[10] = tested on: NCI-H2023
Outline: as §1

[11] = tested on: NCI-H1993
Outline: as §1

[12] = tested on: NCI-H647
Outline: as §1

[13] = tested on: NCI-H2085
Outline: as §1

[14] = tested on: COR-L 105
Outline: as §1

[15] = tested on: NCI-H3122
Outline: as §1

[16] = tested on: NCI-H1975
Outline: as §1

[17] = tested on: NCI-H1651
Outline: as §1

[18] = tested on: HOP-62
Outline: as §1

[19] = tested on: NCI-H596
Outline: as §1

[20] = tested on: A-427
Outline: as §1

Q: Which results are given for `Cc1cnc(-c2cnc(NCCNc3ccc(C#N)cn3)nc2-c2ccc(Cl)cc2Cl)[nH]1` + CC(C)C[C@H](NC(=O)[C@H](Cc1ccccc1)NC(=O)c1cnccn1)B(O)O [Bortezomib] (partner 0.002 µM)?
A: relative viability ([1]; first compound 0.08 µM): 0.938; relative viability ([1]; first compound 0.253 µM): 0.84; relative viability ([1]; first compound 0.8 µM): 0.834; relative viability ([1]; first compound 2.53 µM): 0.903; relative viability ([2]; first compound 0.08 µM): 0.707; relative viability ([2]; first compound 0.253 µM): 0.819; relative viability ([2]; first compound 0.8 µM): 0.838; relative viability ([2]; first compound 2.53 µM): 0.744; relative viability ([3]; first compound 0.08 µM): 1.04; relative viability ([3]; first compound 0.253 µM): 0.997; relative viability ([3]; first compound 0.8 µM): 1.14; relative viability ([3]; first compound 2.53 µM): 0.943; relative viability ([4]; first compound 0.08 µM): 0.804; relative viability ([4]; first compound 0.253 µM): 0.84; relative viability ([4]; first compound 0.8 µM): 0.82; relative viability ([4]; first compound 2.53 µM): 0.814; relative viability ([5]; first compound 0.253 µM): 0.902; relative viability ([5]; first compound 2.53 µM): 0.975; relative viability ([6]; first compound 0.08 µM): 1.27; relative viability ([6]; first compound 0.253 µM): 1; relative viability ([6]; first compound 0.8 µM): 0.804; relative viability ([6]; first compound 2.53 µM): 0.931; relative viability ([7]; first compound 0.08 µM): 1.08; relative viability ([7]; first compound 0.253 µM): 1.04; relative viability ([7]; first compound 0.8 µM): 0.983; relative viability ([7]; first compound 2.53 µM): 0.912; relative viability ([8]; first compound 0.08 µM): 1.04; relative viability ([8]; first compound 0.253 µM): 0.946; relative viability ([8]; first compound 0.8 µM): 1.09; relative viability ([8]; first compound 2.53 µM): 1.11; relative viability ([9]; first compound 0.08 µM): 0.997; relative viability ([9]; first compound 0.253 µM): 0.683; relative viability ([9]; first compound 0.8 µM): 0.771; relative viability ([9]; first compound 2.53 µM): 0.808; relative viability ([10]; first compound 0.08 µM): 1.44; relative viability ([10]; first compound 0.253 µM): 0.651; relative viability ([10]; first compound 0.8 µM): 1.01; relative viability ([10]; first compound 2.53 µM): 0.978; relative viability ([11]; first compound 0.08 µM): 1.23; relative viability ([11]; first compound 0.253 µM): 1.07; relative viability ([11]; first compound 0.8 µM): 1.1; relative viability ([11]; first compound 2.53 µM): 1.26; relative viability ([12]; first compound 0.08 µM): 0.943; relative viability ([12]; first compound 0.253 µM): 0.836; relative viability ([12]; first compound 0.8 µM): 1.05; relative viability ([12]; first compound 2.53 µM): 0.994; relative viability ([13]; first compound 0.08 µM): 1.12; relative viability ([13]; first compound 0.253 µM): 1.17; relative viability ([13]; first compound 0.8 µM): 0.957; relative viability ([13]; first compound 2.53 µM): 1.02; relative viability ([14]; first compound 0.08 µM): 0.898; relative viability ([14]; first compound 0.253 µM): 0.754; relative viability ([14]; first compound 0.8 µM): 0.62; relative viability ([14]; first compound 2.53 µM): 0.445; relative viability ([15]; first compound 0.08 µM): 1.03; relative viability ([15]; first compound 0.253 µM): 0.925; relative viability ([15]; first compound 0.8 µM): 0.997; relative viability ([15]; first compound 2.53 µM): 0.972; relative viability ([16]; first compound 0.08 µM): 0.412; relative viability ([16]; first compound 0.253 µM): 0.391; relative viability ([16]; first compound 0.8 µM): 0.425; relative viability ([16]; first compound 2.53 µM): 0.328; relative viability ([17]; first compound 0.08 µM): 0.965; relative viability ([17]; first compound 0.253 µM): 0.883; relative viability ([17]; first compound 0.8 µM): 0.937; relative viability ([17]; first compound 2.53 µM): 0.92; relative viability ([18]; first compound 0.08 µM): 1.18; relative viability ([18]; first compound 0.253 µM): 0.772; relative viability ([18]; first compound 0.8 µM): 0.875; relative viability ([18]; first compound 2.53 µM): 0.907; relative viability ([19]; first compound 0.08 µM): 1.19; relative viability ([19]; first compound 0.253 µM): 0.802; relative viability ([19]; first compound 0.8 µM): 1.09; relative viability ([19]; first compound 2.53 µM): 1.12; relative viability ([20]; first compound 0.08 µM): 0.972; relative viability ([20]; first compound 0.253 µM): 1.03; relative viability ([20]; first compound 0.8 µM): 0.993; relative viability ([20]; first compound 2.53 µM): 0.975
